Earlier results in patent publication US20190022221A1 (priority 2015, published 2019).

Assays:
[1] = in vivo
[2] = test system: Venezuelan equine encephalitis virus (VEEV)
[3] = test system: Zaire Ebola virus (ZEBOV)
[4] = test system: Acinetobacter baumannii; settings: 1.1-millimeter-thick soft agar layer, light 100 milliWatts per square centimeter

Oc1cccc(-c2c3nc(c(-c4cccc(O)c4)c4ccc([nH]4)c(-c4cccc(O)c4)c4nc(c(-c5cccc(O)c5)c5ccc2[nH]5)CC4)C=C3)c1 [Foscan, Tetra (m-hydroxyphenyl) chlorin]
duration of skin photosensitivity [1]: approximately 2 weeks

[N-]=[N+]=Nc1cccc2c(I)cccc12 [INA, 1,5-iodonaphthyl azide]
inactivation of virulent strain of VEEV [2]: efficiently inactivate
infectivity of ZEBOV after INA treatment [3]: completely noninfectious

CC(=O)[O-].CC(=O)[O-].CCc1c(CC)c2cc3nc(cnc4cc(OCCOCCOCCOC)c(OCCOCCOCCOC)cc4ncc4nc(cc1[n-]2)C(CCCO)=C4C)C(C)=C3CCCO.O.[Lu+3] [Lutetium texaphryin, Motexafin lutetium]
duration of skin photosensitivity [1]: 24 to 48 h

[Mn(PaPy3)(NO)](ClO4)
clearance of bacteria from treated areas of the plates [4]: effectively cleared the bacteria
